In ChEMBL document CHEMBL4184269, “Novel aromatic sulfonyl naphthalene-based boronates as 20S proteasome inhibitors” (Bioorg Med Chem, 2018):

Legend:
[1] = molecular target: T1, Proteasome Macropain subunit MB1 (Homo sapiens) (UniProt P28074); test: Inhibition of chymotrypsin-like activity of human 20S proteasome at 100 nM using Suc-Leu-Leu-Val-Tyr-AMC as substrate by fluorescence assay relative to control
T1 sequence (whole entry): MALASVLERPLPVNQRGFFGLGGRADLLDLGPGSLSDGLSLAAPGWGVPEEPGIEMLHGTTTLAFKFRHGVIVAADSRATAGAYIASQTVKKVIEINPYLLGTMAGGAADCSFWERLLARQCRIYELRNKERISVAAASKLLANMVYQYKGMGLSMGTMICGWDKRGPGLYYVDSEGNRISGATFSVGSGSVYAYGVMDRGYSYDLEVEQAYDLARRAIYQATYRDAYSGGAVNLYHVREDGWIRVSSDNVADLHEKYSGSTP

MCF7 = test: Antiproliferative activity against human MCF7 cells after 72 hrs by SRB assay; type: functional, cell-based
MDA-MB-231 = test: Antiproliferative activity against human MDA-MB-231 cells after 72 hrs by SRB assay; type: functional, cell-based
A549 = test: Antiproliferative activity against human A549 cells after 72 hrs by SRB assay; type: functional, cell-based
[2] = Metabolic stability in Sprague-Dawley rat liver microsomes assessed as parent compound remaining at […] preincubated for 5 mins followed by NADPH addition measured after 40 mins by HPLC analysis; type: ADME, microsome; details: read-out: Stability
[3] = molecular target: T1, Proteasome Macropain subunit MB1 (Homo sapiens); test: Inhibition of chymotrypsin-like activity of human 20S proteasome at 10 nM using Suc-Leu-Leu-Val-Tyr-AMC as substrate by fluorescence assay relative to control

| Structure (SMILES) | inhibition [1] [%] | IC50 (MCF7; Homo sapiens, MCF7, 72 h) [µM] | IC50 (MDA-MB-231; Homo sapiens, MDA-MB-231, 72 h) [µM] | also measured |
| --- | --- | --- | --- | --- |
| CC(C)C[C@H](NC(=O)CSc1cc(NS(=O)(=O)c2ccc(Cl)cc2)c2ccccc2c1O)B(O)O | 45.1 | 10.4 | 6.19 |  |
| CC(C)C[C@H](NC(=O)C(C)Sc1cc(NS(=O)(=O)c2ccccc2)c2ccccc2c1O)B(O)O (stereo in doubt; 3b) [listing 1 of 2 here] |  | 16.5 |  | IC50 (A549): 4.48 µM; IC50 (MDA-MB-231; mda-mb-231): 11.1 µM |
| CC(C)C[C@H](NC(=O)[C@H](Cc1ccccc1)NC(=O)c1cnccn1)B(O)O [BORTEZOMIB] |  | 18.4 | 3.12 | remaining at 40 min [2]: 30%; inhibition [3]: 51.2% |
| CC(C)C[C@H](NC(=O)C(C)Sc1cc(NS(=O)(=O)c2ccc(Cl)cc2)c2ccccc2c1O)B(O)O (stereo in doubt; 3c-1) [listing 1 of 2 here] | 39.4 |  |  |  |
| CC(=O)Nc1ccc(S(=O)(=O)Nc2cc(SC(C)C(=O)N[C@@H](CC(C)C)B(O)O)c(O)c3ccccc23)cc1 (stereo not given in full) | 27.4 | 8.91 | 2.8 |  |
| CC(C)C[C@H](NC(=O)CSc1cc(NS(=O)(=O)c2ccccc2)c2ccccc2c1O)B(O)O | 32.5 | 4.16 | 10.6 |  |
| CC(C)C[C@H](NC(=O)C(C)Sc1cc(NS(=O)(=O)c2cccs2)c2ccccc2c1O)B(O)O (stereo not given in full) | 41.1 | 14.7 | 7.45 |  |
| CC(C)C[C@H](NC(=O)C(C)Sc1cc(NS(=O)(=O)c2ccc(Cl)cc2)c2ccccc2c1O)B(O)O (stereo in doubt; 3c) [listing 1 of 2 here] | 41.5 |  |  |  |
| CC(=O)Nc1ccc(S(=O)(=O)Nc2cc(SCC(=O)N[C@@H](CC(C)C)B(O)O)c(O)c3ccccc23)cc1 | 40.8 | 8.66 | 4.45 |  |
| Cc1ccc(S(=O)(=O)Nc2cc(SC(C)C(=O)N[C@@H](CC(C)C)B(O)O)c(O)c3ccccc23)cc1 (stereo not given in full) | 35.5 | 8.61 | 8.13 |  |
| Cc1ccc(S(=O)(=O)Nc2cc(SCCC(=O)N[C@@H](CC(C)C)B(O)O)c(O)c3ccccc23)cc1 | 54.2 | 6.94 | 6.15 | remaining at 40 min [2]: 56% |
| O=C(O)CSc1cc(NS(=O)(=O)c2cccs2)c2ccccc2c1O | 6.86 |  |  |  |
| CC(C)C[C@H](NC(=O)CCSc1cc(NS(=O)(=O)c2ccccc2)c2ccccc2c1O)B(O)O | 45.6 | 7.46 | 4.2 |  |
| CC(C)C[C@H](NC(=O)C(C)Sc1cc(NS(=O)(=O)c2ccc(Cl)cc2)c2ccccc2c1O)B(O)O (stereo in doubt; 3c-1) [listing 2 of 2 here] |  |  |  | IC50 (MCF7; mcf7): 10.7 µM; IC50 (MDA-MB-231; mda-mb-231): 6.46 µM |
| CC(C)C[C@H](NC(=O)C(C)Sc1cc(NS(=O)(=O)c2ccccc2)c2ccccc2c1O)B(O)O (stereo in doubt; 3b-1) [listing 1 of 2 here] |  |  |  | IC50 (MCF7; mcf7): 11.3 µM; IC50 (MDA-MB-231; mda-mb-231): 5.11 µM |
| CC(C)C[C@H](NC(=O)C(C)Sc1cc(NS(=O)(=O)c2ccc(Cl)cc2)c2ccccc2c1O)B(O)O (stereo in doubt; 3c) [listing 2 of 2 here] |  | 10.1 | 6.15 | IC50 (A549): 16.5 µM |
| Cc1ccc(S(=O)(=O)Nc2cc(SCC(=O)N[C@@H](CC(C)C)B(O)O)c(O)c3ccccc23)cc1 | 36.6 | 12.8 | 14 |  |
| CC(C)C[C@H](NC(=O)CSc1cc(NS(=O)(=O)c2cccs2)c2ccccc2c1O)B(O)O | 33.3 | 9.45 | 6.52 |  |
| CC(=O)Nc1ccc(S(=O)(=O)Nc2cc(SCCC(=O)N[C@@H](CC(C)C)B(O)O)c(O)c3ccccc23)cc1 | 38.4 | 6.62 | 2.12 |  |
| CC(C)C[C@H](NC(=O)CCSc1cc(NS(=O)(=O)c2ccc(Cl)cc2)c2ccccc2c1O)B(O)O | 52.5 | 6.91 | 4.09 |  |
| C[S+](C)[O-] | 4.89 |  |  |  |
| CC(C)C[C@H](NC(=O)C(C)Sc1cc(NS(=O)(=O)c2ccccc2)c2ccccc2c1O)B(O)O (stereo in doubt; 3b) [listing 2 of 2 here] | 22.6 |  |  |  |
| CC(C)C[C@H](NC(=O)CCSc1cc(NS(=O)(=O)c2cccs2)c2ccccc2c1O)B(O)O | 38.3 | 6.47 | 4.45 |  |
| CC(C)C[C@H](NC(=O)C(C)Sc1cc(NS(=O)(=O)c2ccccc2)c2ccccc2c1O)B(O)O (stereo in doubt; 3b-1) [listing 2 of 2 here] | 25.4 |  |  |  |
